According to patent US20130303500A1, “COMPOUNDS AND METHODS FOR TREATING NEOPLASIA” (Medexis S.A., priority 2010, published 2013):

Test system: membrane androgen receptor
Test: Membrane androgen receptor competition assay with testosterone-HSA-FITC in DU145 cells
Assay type: binding
Parameters: membrane fluorescence (binding of TAC-FITC to the membrane androgen receptor): dose or concentration left out as unconfirmed
Protocol: The detection of membrane androgen receptors using fluorescent testosterone-serum albumin conjugates was performed as described by Kampa, M et al., 2002, Faseb J 16:1429-1431, with minor modifications. The assay was used to measure the ability of a given compound to preclude binding of a fluorescent mAR ligand (testosterone-HSA-FITC conjugates) to its receptor in DU145 cells; this compound-induced effect is indicative of direct mAR binding (see Kampa et al and PCT/US2007/007913). […] Coverslips were mounted on slides by using the Slow Fade/Antifade Reagent (Molecular Probes) and studied under a LEICA DMLB microscope, equipped with the appropriate fluorescence filters and a Leica DC 300F camera. Specimens were analyzed using the Leica FW4000 computer program.
Membrane androgen receptor competition assays were performed to determine the capacity of a given compound to preclude binding of fluorescent testosterone-HSA conjugates (TAC) to the membrane androgen receptor. […] Specimens were prepared and analyzed as described above. Compounds binding to the membrane androgen receptor preclude binding of fluorescent testosterone-HSA conjugates to their target and abolish membrane-specific fluorescence.

Question: What does the source list for C[C@]12CCC(=NOC3CCNC3)CC1CCC1C2CC[C@]2(C)C(=O)C(F)CC12 (stereo partly drawn) [Compound 2, (5S,10S,13S,16R)-16a-fluoro-10,13-dimethyl-3-((S)-pyrrolidin-3-yloxyimino)-tetradecahydro-2H-cyclopenta[a]phenanthren-17(14H)-one]?
Answer: binding to the membrane androgen receptor (conclusion) (DU145 cells): capable of binding to the membrane androgen receptor; membrane fluorescence (binding of TAC-FITC to the membrane androgen receptor) (DU145 cells pre-treated with compound for 30 minutes, then testosterone-HSA-FITC): largely reduced
